# Assay results from US7767789B2, “Truncated proteins as cancer markers” (University Hopitals of Cleveland, priority 2005, dated 2010).
# Where two headings read alike, the source gives them in different places. Residues, ends and D or L forms follow the SMILES beside them. *: point of attachment. Cbz = O=C(OCc1ccccc1)*; CH2F = FC*
# Assays:
# [1] = test system: α-adrenoceptors (CaSki cells); test: Binding studies, α-adrenoceptor radioligands; parameters: species or system human; conditions: not shown
# Procedure: Binding studies of the adrenoceptors and the EGF receptor used a similar method. Two hundred fifty microliters of binding medium (serum-free DMEM, 0.1% BSA, 10 mM HEPES) containing […] of the radioligand were added to the apical container of the filter, and 500/μl of the same solution to the basolateral container; parallel tubes contained an additional 200-fold excess radioinert ligand. The cells were then incubated at 4° C. for 3 h; at the completion of incubations cells were washed three times with ice-cold HBSS containing 0.1% BSA. Cells were solubilized in 0.2 N NaOH, and the bound ligand was separated on glass fiber filters (Whatman, GF/C, Tonawanda, N.Y.) by vacuum filtration. The associated radioligand was counted either in a β-scintillation counter (for [^3H] associated ligands) or in a γ-counter (for 125I] associated ligands). […] (all at 1 μCi/ml; specific activity, about 90 Ci/mmo]; Amersham), and [^125I]EGF (5 μCi/ml; specific activity, about 100 Ci/mmol; Biomedical Technology, Stoughton, Mass.). […] Human recombinant EGF was from R&D Systems (Minneapolis, Minn.). Specific receptor binding was expressed per milligram DNA, and data were analyzed by Scatchard plot.
# [2] = biological target: T1, β2-adrenoceptor (CaSki cells) (Homo sapiens, UniProt P07550); test: Binding studies, β-adrenoceptor radioligand
# T1 construct: endogenous in cells; host or cells: CaSki cells on filters (intact cells, 4 °C)
# [3] = test system: CaSki cells; test: DNA solubilization assay (apoptosis); format: cell-based, human; conditions: for effect on zinterol (1 μM)-induced inhibition of BzATP-induced apoptosis: cotreatment 24 h: 10 μM propranolol, 100 nM ICI 118,551, 30 μM H-89 dihydrochloride; for effect on BzATP-induced apoptosis (DNA solubilization): pretreatment: EGF 0.2 nM, zinterol/terbutaline 1 μM 24 h, forskolin 10 μM 14 h with IBMX, isoproterenol 10 μM, phenylephrine 100 μM; for BzATP-induced DNA solubilization after pretreatment: 100 μM BzATP 9 h, 24 h 2 nM epinephrine ± 0.2 nm EGF, zVAD-FMK 30 min before, 50 /ZM
# Procedure: Twenty-four hours before the end of the experiment, cells were labeled with [^3H]thymidine (specific activity, 93 Ci/mmol; 5 μCi/1×10^6 cells) for 16 h. The medium was removed, and cells were washed three times with fresh medium lacking [^3H]thymidine and were incubated in the same medium for an additional 6 h. At the end of incubation, the supernatant was stored, and cells were lysed in 0.5 ml lysis buffer (10 mM Tris-HCl, pH 7.5; plus 1 mM EDTA-0.2% Triton X-100) for 1 h at 4° C. The intact chromatin was separated from the fragmented DNA by 5 min centrifugation at 4° C. in Eppendorf microcentrifuge at 12,000×g. The supernatant (lysate) was stored, while the pellet was resuspended in 0.5 ml of 1% sodium dodecyl sulfate (SDS). The radioactivity contained in the supernatants, lysates; and pellets was counted in a scintillation counter, and DNA fragmentation was calculated as: [% Solubilized DNA]=([cpm supernatant+cpm lysates]/[cpm supernatant+cpm lysate+cpm pellet])×100.
# [4] = test system: hECEs, ECE16-1, HT3, CaSki, SiHa and Hela cells; conditions: cited from earlier work
# [5] = test system: Bcl-2; conditions: cited from earlier work
# [6] = test system: caspase-9; conditions: hECEs and CaSki cells; cited from earlier work
# [7] = test system: P2X7 receptor; conditions: cited from earlier work
# [8] = biological target: T2, full-length human P2X7 receptor (HEK-293-hP2X7-R cells) (Homo sapiens, UniProt Q99572); test: Cytosolic calcium in HEK-293-hP2X7-R and wild-type HEK293 cells on filters; format: cell-based
# T2 construct: For transfections, the full length human P2X7 receptor; expressed in transfected cells; host or cells: HEK-293, pcDNA-6 vector
# T2 sequence (Q99572 1-595): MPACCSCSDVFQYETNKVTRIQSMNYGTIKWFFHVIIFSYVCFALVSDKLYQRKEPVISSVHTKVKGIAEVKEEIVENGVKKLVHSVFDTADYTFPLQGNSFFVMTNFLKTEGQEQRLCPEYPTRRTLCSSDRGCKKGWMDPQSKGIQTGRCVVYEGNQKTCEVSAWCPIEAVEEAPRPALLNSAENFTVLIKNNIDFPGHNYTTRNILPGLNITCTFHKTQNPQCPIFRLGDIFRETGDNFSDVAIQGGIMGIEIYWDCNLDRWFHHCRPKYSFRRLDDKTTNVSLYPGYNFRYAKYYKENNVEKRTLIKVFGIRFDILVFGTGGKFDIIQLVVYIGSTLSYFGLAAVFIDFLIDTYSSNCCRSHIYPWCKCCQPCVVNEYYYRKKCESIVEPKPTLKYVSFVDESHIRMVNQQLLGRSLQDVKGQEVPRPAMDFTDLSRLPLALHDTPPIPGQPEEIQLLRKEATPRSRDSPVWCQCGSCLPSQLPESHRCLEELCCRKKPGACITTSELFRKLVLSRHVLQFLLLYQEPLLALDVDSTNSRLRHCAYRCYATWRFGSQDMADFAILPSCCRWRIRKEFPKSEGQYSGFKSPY
# [9] = test system: β-arrestin-2-GFP in CaSki cells; test: Real-time confocal microscopy of β-arrestin-2-GFP, CaSki cells; format: cell-based, human; conditions: CaSki transfected with β-arrestin-2-GFP; 250 μM ATP
# Procedure: (§1) CaSki cells transfected with the β-arrestin-2-GFP, or HEK-293 cells co-transfected with the full-length human P2X7-receptor and the β-arrestin-2-GFP were plated on 35-mm glass-bottom culture dishes (MatTek Corporation, Ashland, MA). Dishes contained a centered, 1 cm well formed from a glass coverslip sealed hole in the plastic. Two hours before experiments the medium was replaced with serum-free medium supplemented with 10 mM HEPES. The distribution of the β-arrestin-2-GFP was visualized before and after treatment with the agonist by real-time confocal microscopy. Imaging of the β-arrestin-2-GFP fluorescence in the same cells was performed on a Zeiss laser-scanning confocal microscope (LSM-510) using a heated (37° C.) microscope stage. Barak et al., “A beta-arrestin/green fluorescent protein biosensor for detecting G protein-coupled receptor activation” J Biol Chem 272:27497-27500 (1997).
# (§2) Images were collected sequentially before and after treatment with agonist for 0-30 min at 37° C. using single line excitation (488 nm).
# [10] = test system: β-arrestin-2-GFP in HEK-293-hP2X7-R cells; test: Real-time confocal microscopy of β-arrestin-2-GFP, HEK-293 cells; format: cell-based, human
# Procedure: as §1, §2
# [11] = biological target: P2X7 receptor (HEK-293-hP2X7-R cells) (Homo sapiens, UniProt Q99572)
# [12] = biological target: T2, full-length human P2X7 receptor (HEK-293-hP2X7-R cells); test: Ethidium bromide influx in HEK-293-hP2X7-R and wild-type HEK293 cells on filters; format: cell-based
# [13] = test system: CaSki cells; test: Number of CaSki cells in culture; format: cell-based, human; conditions: serum-free; 0.2 nM EGF, 2 nM epinephrine, or both, 24 h
# Procedure: Near-confluent cultures of CaSki cells on filters were shifted for 14 hours to serum-free medium supplemented with 1% BSA and were treated in the same medium with 0.2 nM EGF, 2 nM epinephrine, or both for an additional 24 h. At the completion of treatments, cells were harvested off the filters and counted.
# [14] = HEK-293-hP2X7-R with β-arrestin-2-GFP, 10 μM angiotensin, 10 μM UTP
# T1 sequence (P07550 whole entry): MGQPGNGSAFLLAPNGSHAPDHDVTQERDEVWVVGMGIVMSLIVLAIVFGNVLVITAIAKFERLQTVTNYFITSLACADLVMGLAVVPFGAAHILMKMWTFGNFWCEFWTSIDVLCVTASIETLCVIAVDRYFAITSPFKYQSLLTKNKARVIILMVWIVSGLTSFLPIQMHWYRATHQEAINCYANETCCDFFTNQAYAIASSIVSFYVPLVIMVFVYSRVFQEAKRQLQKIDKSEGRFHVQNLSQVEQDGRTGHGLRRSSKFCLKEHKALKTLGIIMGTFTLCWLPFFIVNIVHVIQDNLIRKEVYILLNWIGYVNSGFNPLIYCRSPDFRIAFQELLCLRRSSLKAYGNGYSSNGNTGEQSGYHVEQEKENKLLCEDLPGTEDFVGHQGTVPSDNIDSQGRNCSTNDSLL
compound,measurement,setting,value
COc1cc2nc(N3CCN(C(=O)c4ccco4)CC3)nc(N)c2cc1OC [[^3H]prazosin],specific binding,[1],no specific binding
CC(C)(C)NCC(O)COc1cccc2[nH]c(C#N)c([125I])c12 (stereo not drawn) [[^125I]cyanopindolol],binding activity,[2],about 15 fmol/mg DNA
same,binding activity as receptors per cell,[2],"~10,000 receptors/cell"
"Cc1ccc(OCC(O)C(C)NC(C)C)c2c1CCC2 (stereo not drawn) [ICI 118,551]",effect on zinterol (1 μM)-induced inhibition of BzATP-induced apoptosis,[3],blocked
Cl.Cl.O=S(=O)(NCCNC/C=C/c1ccc(Br)cc1)c1cccc2cnccc12 [H-89 dihydrochloride],effect on zinterol (1 μM)-induced inhibition of BzATP-induced apoptosis,[3],blocked
17β-estradiol [estrogen],P2X7 receptor-induced apoptosis,[4]; SiHa and Hela cells,no effect
same,earliest effects after adding the hormone,[4],1 to 3 h
same,baseline and P2X7 receptor-induced apoptosis,"[4]; hECEs, ECE16-1, HT3, and CaSki cells",blocked baseline and P2X7 receptor-induced apoptosis
same,Bcl-2 regulation,[5]; CaSki cells,upregulated Bcl-2
same,Bcl-2 regulation,[5]; SiHa and Hela cells,did not find estrogen regulation of Bcl-2
same,P2X7 receptor-induced activation of caspase-9,[6],blocked P2X7 receptor-induced activation of caspase-9
same,BzATP-induced calcium influx,[7]; cancer CaSki cells,only a mild effect
same,BzATP-induced calcium influx,[7]; normal hECEs,did block BzATP-induced calcium influx
CC(C)NCC(O)COc1cccc2ccccc12 (stereo not drawn) [propranolol],effect on zinterol (1 μM)-induced inhibition of BzATP-induced apoptosis,[3],blocked
CC(C)(C)NCC(O)c1cc(O)cc(O)c1 (stereo not drawn) [terbutaline],effect on BzATP-induced apoptosis (DNA solubilization),[3],inhibited
CC(C)NCC(O)c1ccc(O)c(O)c1 (stereo not drawn) [isoproterenol],effect on BzATP-induced apoptosis (DNA solubilization),[3],no effect
TNFα,DNA solubilization,[3]; 100 μM BzATP for 9 h or 10 μM TNFα for 14 h,significantly increased DNA solubilization
CC(C)(Cc1ccccc1)NCC(O)c1ccc(O)c(NS(C)(=O)=O)c1 (stereo not drawn) [zinterol],effect on TNFα-induced increase in DNA solubilization,[3]; pretreatment 24 h: 1 μM zinterol or 0.2 nM EGF,no effect
same,effect on BzATP-induced apoptosis (DNA solubilization),[3],inhibited
CC/C(=C(\c1ccccc1)c1ccc(OCCN(C)C)cc1)c1ccccc1 [tamoxifen],inhibition of the estrogen antiapoptotic action,[4],lack of inhibition
[^3H]tamsulosin,specific binding,[1],no specific binding
C[C@]12CC[C@@H]3c4ccc(O)cc4C[C@@H](CCCCCCCCC[S+]([O-])CCCC(F)(F)C(F)(F)F)[C@H]3[C@@H]1CC[C@@H]2O (stereo partly drawn) [ICI-182780],inhibition of the estrogen antiapoptotic action,[4],lack of inhibition
"Nc1ncnc2c1ncn2[C@@H]1O[C@H](COP(=O)(O)OP(=O)(O)OP(=O)(O)O)[C@@H](O)[C@H]1O [ATP, adenosine triphosphate]",Cai transients,[8],did not induce Cai transients
same,sustained cytosolic calcium increase,[8],induced sustained Ci increase
same,time to re-distribution of GFP fluorescence towards cell periphery,[9],≤ 3 min
same,time to redistribution of the GFP fluorescence towards cell periphery,"[10]; HEK-293-hP2X7-R co-transfected with β-arrestin-2-GFP, 250 μM ATP",≤ 5 min
same,duration of redistribution effect,"[10]; HEK-293-hP2X7-R with β-arrestin-2-GFP, 250 μM ATP",at least 10 minutes
same,effect on the GFP fluorescence,"[10]; HEK-293 cells transfected with only β-arrestin-2-GFP, 250 μM ATP",no significant effect
same,65 KDa and 18 KDa forms in the cytosol,[11]; HEK-293-hP2X7-R cells,biphasic change
same,18 KDa form in the membrane-enriched fraction,"[11]; HEK-293-hP2X7-R, began 10 min after treatment",gradual increase
"COC(=O)C[C@H](NC(=O)[C@H](C)NC(=O)[C@@H](NC(=O)OCc1ccccc1)C(C)C)C(=O)CF [zVAD-FMK, Benzyloxy-vallne-alardne-aspartate-O-methylfluoromethylketone] (Cbz-Val-Ala-Asp(OMe)-CH2F)",BzATP-induced DNA solubilization after pretreatment,[3],about 1.4%
O=c1ccn([C@@H]2O[C@H](COP(=O)(O)OP(=O)(O)OP(=O)(O)O)[C@@H](O)[C@H]2O)c(=O)[nH]1 [UTP],effect on cytosolic calcium levels,[8]; not shown,nor did the nucleotide UTP have any appreciable effect
same,effect on the GFP fluorescence,[10]; [14],"Neither angiotensin, nor UTP, had a significant effect"
angiotensin,effect on the GFP fluorescence,[10]; [14],"Neither angiotensin, nor UTP, had a significant effect"
"Nc1ncnc2c1ncn2[C@@H](C=O)O[C@@H](C=O)COP(=O)(O)OP(=O)(O)OP(=O)(O)O [oATP, oxidized ATP]",effect on ATP/BzATP-induced sustained calcium increase,[8],inhibited
same,effect on ATP/BzATP-induced influx of ethidium bromide,[12],inhibited
CNC[C@H](O)c1ccc(O)c(O)c1 [epinephrine],number of cells in culture,[13],increased the number of cells in culture
same,BzATP-induced DNA solubilization after pretreatment,[3],4.6%
CNC[C@H](O)c1cccc(O)c1 [phenylephrine],effect on BzATP-induced apoptosis (DNA solubilization),[3],no effect
"CN([C@@H](Cc1ccc(OS(=O)(=O)c2cccc3cnccc23)cc1)C(=O)N1CCN(c2ccccc2)CC1)S(=O)(=O)c1cccc2cnccc12 [KN-62, 1-[N,O-bis(5-isoquinolinesulfonyl)-N-methyl-L-tyrosyl]-4-phenylpiperazine]",effect on ATP/BzATP-induced sustained calcium increase,[8],inhibited
same,effect on ATP/BzATP-induced influx of ethidium bromide,[12],inhibited
CC(=O)[C@H]1CC[C@H]2[C@@H]3CCC4=CC(=O)CC[C@]4(C)[C@H]3CC[C@]12C [progesterone],inhibition of the estrogen antiapoptotic action,[4],lack of inhibition
